Experimental data reported in patent publication US11331369B2, “Endoparasitic depsipeptides” (Zoetis Services LLC, priority 2017, dated 2022).

What was measured:
[1] = system: microfilariae of Dirofilaria immitis; assay: Dirofilaria immitis, Microfilaria (DiMF) In vitro Assay; format: cell-based; conditions: 72 h, read-out: DiMF Minimum Effective Dose (MED), approximately 72 hours incubation, microfilariae assessed for survival or paralysis
[2] = system: third stage larvae of Haemonchus contortus; assay: Haemonchus contortus L3 (HcL3) Assay; format: cell-based; conditions: 96 h, read-out: HcL3 Minimum Effective Dose (MED)

## Cc1nn(Cc2ccc(C[C@H]3OC(=O)[C@H](CC(C)C)N(C)C(=O)[C@@H](C)OC(=O)[C@H](CC(C)C)N(C)C(=O)[C@@H](Cc4ccc(Cn5nc(C)c(F)c5C)cc4)OC(=O)[C@H](CC(C)C)N(C)C(=O)[C@@H](C)OC(=O)[C@H](CC(C)C)N(C)C3=O)cc2)c(C)c1F [Example 1b-110, (3S,6R,9S,12R,15S,18R,21S,24R)-6,18-bis(4-((4-fluoro-3,5-dimethyl-1H-pyrazol-1-yl)methyl)benzyl)-3,9,15,21-tetraisobutyl-4,10,12,16,22,24-hexamethyl-1,7,13,19-tetraoxa-4,10,16,22-tetraazacyclotetracosan-2,5,8,11,14,17,20,23-octaone]
[1]
  minimal effective concentration: 0.01 to 0.1 µM
[2]
  minimal effective concentration: 1 to 10 µM

## Cc1cnn(Cc2ccc(C[C@H]3OC(=O)[C@H](CC(C)C)N(C)C(=O)[C@@H](C)OC(=O)[C@H](CC(C)C)N(C)C(=O)[C@@H](Cc4ccccc4)OC(=O)[C@H](CC(C)C)N(C)C(=O)[C@@H](C)OC(=O)[C@H](CC(C)C)N(C)C3=O)cc2)c1 [Example 2-2, (3S,6R,9S,12R,15S,18R,21S,24R)-6-benzyl-3,9,15,21-tetraisobutyl-4,10,12,16,22,24-hexamethyl-18-[[4-[(4-methylpyrazol-1-yl)methyl]phenyl]methyl]-1,7,13,19-tetraoxa-4,10,16,22-tetrazacyclotetracosane-2,5,8,11,14,17,20,23-octaone]
[1]
  minimal effective concentration: 0.001 to 0.01 µM
[2]
  minimal effective concentration: 1 to 10 µM

## CCOCc1nccn1Cc1ccc(C[C@H]2OC(=O)[C@H](CC(C)C)N(C)C(=O)[C@@H](C)OC(=O)[C@H](CC(C)C)N(C)C(=O)[C@@H](Cc3ccc(Cn4ccnc4COCC)cc3)OC(=O)[C@H](CC(C)C)N(C)C(=O)[C@@H](C)OC(=O)[C@H](CC(C)C)N(C)C2=O)cc1 [Example 6-20, (3S,6R,9S,12R,15S,18R,21S,24R)-6,18-bis(4-((2-(ethoxymethyl)-1H-imidazol-1-yl)methyl)benzyl)-3,9,15,21-tetraisobutyl-4,10,12,16,22,24-hexamethyl-1,7,13,19-tetraoxa-4,10,16,22-tetraazacyclotetracosan-2,5,8,11,14,17,20,23-octaone]
[1]
  minimal effective concentration: 0.001 to 0.01 µM
[2]
  minimal effective concentration: 1 to 10 µM

## CC(C)C[C@H]1C(=O)O[C@H](Cc2ccc(Cn3nc(CO)cc3C3CC3)cc2)C(=O)N(C)[C@@H](CC(C)C)C(=O)O[C@H](C)C(=O)N(C)[C@@H](CC(C)C)C(=O)O[C@H](Cc2ccc(Cn3nc(C#N)cc3C#N)cc2)C(=O)N(C)[C@@H](CC(C)C)C(=O)O[C@H](C)C(=O)N1C [Example 1a-10, 1-(4-(((2R,5S,8R,11S,14R,17S,20R,23S)-14-(4-((5-cyclopropyl-3-(hydroxymethyl)-1H-pyrazol-1-yl)methyl)benzyl)-5,11,17,23-tetraisobutyl-4,8,10,16,20,22-hexamethyl-3,6,9,12,15,18,21,24-octaoxo-1,7,13,19-tetraoxa-4,10,16,22-tetraazacyclotetracosan-2-yl)methyl)benzyl)-1H-pyrazole-3,5-dicarbonitrile]
[1]
  minimal effective concentration: 0.001 to 0.01 µM
[2]
  minimal effective concentration: 1 to 10 µM

## CC(C)C[C@H]1C(=O)O[C@H](Cc2ccc(Cn3ccc(C4CC4)n3)cc2)C(=O)N(C)[C@@H](CC(C)C)C(=O)O[C@H](C)C(=O)N(C)[C@@H](CC(C)C)C(=O)O[C@H](Cc2ccccc2)C(=O)N(C)[C@@H](CC(C)C)C(=O)O[C@H](C)C(=O)N1C [Example 2-74, (3S,6R,9S,12R,15S,18R,21S,24R)-6-benzyl-18-(4-((3-cyclopropyl-1H-pyrazol-1-yl)methyl)benzyl)-3,9,15,21-tetraisobutyl-4,10,12,16,22,24-hexamethyl-1,7,13,19-tetraoxa-4,10,16,22-tetraazacyclotetracosan-2,5,8,11,14,17,20,23-octaone]
[1]
  minimal effective concentration: 0.001 to 0.01 µM
[2]
  minimal effective concentration: 1 to 10 µM

## Cc1cc(C)n(Cc2ccc(C[C@H]3OC(=O)[C@H](CC(C)C)N(C)C(=O)[C@@H](C)OC(=O)[C@H](CC(C)C)N(C)C(=O)[C@@H](Cc4ccc(Cn5nc(C)cc5C)cc4)OC(=O)[C@H](CC(C)C)N(C)C(=O)[C@@H](C)OC(=O)[C@H](CC(C)C)N(C)C3=O)cc2)n1 [Example 1b-29, (3S,6R,9S,12R,15S,18R,21S,24R)-6,18-bis[[4-[(3,5-dimethylpyrazol-1-yl)methyl]phenyl]methyl]-3,9,15,21-tetraisobutyl-4,10,12,16,22,24-hexamethyl-1,7,13,19-tetraoxa-4,10,16,22-tetrazacyclotetracosane-2,5,8,11,14,17,20,23-octaone]
[1]
  minimal effective concentration: 0.001 to 0.01 µM
[2]
  minimal effective concentration: 1 to 10 µM

## CC(C)C[C@H]1C(=O)O[C@H](Cc2ccc(Cn3cc(CO)cn3)cc2)C(=O)N(C)[C@@H](CC(C)C)C(=O)O[C@H](C)C(=O)N(C)[C@@H](CC(C)C)C(=O)O[C@H](Cc2ccccc2)C(=O)N(C)[C@@H](CC(C)C)C(=O)O[C@H](C)C(=O)N1C [Example 2-19, (3S,6R,9S,12R,15S,18R,21S,24R)-6-benzyl-18-(4-((4-(hydroxymethyl)-1H-pyrazol-1-yl)methyl)benzyl)-3,9,15,21-tetraisobutyl-4,10,12,16,22,24-hexamethyl-1,7,13,19-tetraoxa-4,10,16,22-tetraazacyclotetracosan-2,5,8,11,14,17,20,23-octaone]
[1]
  minimal effective concentration: 0.001 to 0.01 µM
[2]
  minimal effective concentration: 1 to 10 µM

## Cc1nc(C2CC2)n(Cc2ccc(C[C@H]3OC(=O)[C@H](CC(C)C)N(C)C(=O)[C@@H](C)OC(=O)[C@H](CC(C)C)N(C)C(=O)[C@@H](Cc4ccc(Cn5nc(C)nc5C5CC5)cc4)OC(=O)[C@H](CC(C)C)N(C)C(=O)[C@@H](C)OC(=O)[C@H](CC(C)C)N(C)C3=O)cc2)n1 [Example 9-57, (3S,6R,9S,12R,15S,18R,21S,24R)-6,18-bis(4-((5-cyclopropyl-3-methyl-1H-1,2,4-triazol-1-yl)methyl)benzyl)-3,9,15,21-tetraisobutyl-4,10,12,16,22,24-hexamethyl-1,7,13,19-tetraoxa-4,10,16,22-tetraazacyclotetracosan-2,5,8,11,14,17,20,23-octaone]
[1]
  minimal effective concentration: 0.01 to 0.1 µM
[2]
  minimal effective concentration: 1 to 10 µM

## Cc1ccn(Cc2ccc(C[C@H]3OC(=O)[C@H](CC(C)C)N(C)C(=O)[C@@H](C)OC(=O)[C@H](CC(C)C)N(C)C(=O)[C@@H](Cc4ccc(Cn5ccc(C)n5)cc4)OC(=O)[C@H](CC(C)C)N(C)C(=O)[C@@H](C)OC(=O)[C@H](CC(C)C)N(C)C3=O)cc2)n1 [Example 1b-94, (3S,6R,9S,12R,15S,18R,21S,24R)-3,9,15,21-tetraisobutyl-4,6,10,16,18,22-hexamethyl-12,24-bis(4-((3-methyl-1H-pyrazol-1-yl)methyl)benzyl)-1,7,13,19-tetraoxa-4,10,16,22-tetraazacyclotetracosan-2,5,8,11,14,17,20,23-octaone]
[1]
  minimal effective concentration: 0.001 to 0.01 µM
[2]
  minimal effective concentration: ≤ 1 µM

## CC(C)C[C@H]1C(=O)O[C@H](Cc2ccc(Cn3ncnc3-c3ccccc3)cc2)C(=O)N(C)[C@@H](CC(C)C)C(=O)O[C@H](C)C(=O)N(C)[C@@H](CC(C)C)C(=O)O[C@H](Cc2ccc(Cn3ncnc3-c3ccccc3)cc2)C(=O)N(C)[C@@H](CC(C)C)C(=O)O[C@H](C)C(=O)N1C [Example 9-34, (3S,6R,9S,12R,15S,18R,21S,24R)-3,9,15,21-tetraisobutyl-4,6,10,16,18,22-hexamethyl-12,24-bis(4-((5-phenyl-1H-1,2,4-triazol-1-yl)methyl)benzyl)-1,7,13,19-tetraoxa-4,10,16,22-tetraazacyclotetracosan-2,5,8,11,14,17,20,23-octaone]
[1]
  minimal effective concentration: 0.001 to 0.01 µM
[2]
  minimal effective concentration: 1 to 10 µM

## CC(C)C[C@H]1C(=O)O[C@H](Cc2ccc(Cn3ccccc3=O)cc2)C(=O)N(C)[C@@H](CC(C)C)C(=O)O[C@H](C)C(=O)N(C)[C@@H](CC(C)C)C(=O)O[C@H](Cc2ccc(Cn3ccccc3=O)cc2)C(=O)N(C)[C@@H](CC(C)C)C(=O)O[C@H](C)C(=O)N1C [Example 9-28, (3S,6R,9S,12R,15S,18R,21S,24R)-3,9,15,21-tetraisobutyl-4,6,10,16,18,22-hexamethyl-12,24-bis(4-((2-oxopyridin-1 (2H)-yl)methyl)benzyl)-1,7,13,19-tetraoxa-4,10,16,22-tetraazacyclotetracosan-2,5,8,11,14,17,20,23-octaone]
[1]
  minimal effective concentration: 0.001 to 0.01 µM
[2]
  minimal effective concentration: 1 to 10 µM

## CC(C)C[C@H]1C(=O)O[C@H](Cc2ccc(CN3CCOC3=O)cc2)C(=O)N(C)[C@@H](CC(C)C)C(=O)O[C@H](C)C(=O)N(C)[C@@H](CC(C)C)C(=O)O[C@H](Cc2ccccc2)C(=O)N(C)[C@@H](CC(C)C)C(=O)O[C@H](C)C(=O)N1C [Example 10-18, (3S,6R,9S,12R,15S,18R,21S,24R)-6-benzyl-3,9,15,21-tetraisobutyl-4,10,12,16,22,24-hexamethyl-18-(4-((2-oxooxazolidin-3-yl)methyl)benzyl)-1,7,13,19-tetraoxa-4,10,16,22-tetraazacyclotetracosan-2,5,8,11,14,17,20,23-octaone]
[1]
  minimal effective concentration: 0.01 to 0.1 µM
[2]
  minimal effective concentration: 1 to 10 µM

## CC(C)C[C@H]1C(=O)O[C@H](Cc2ccc(Cn3ccnc3CO)cc2)C(=O)N(C)[C@@H](CC(C)C)C(=O)O[C@H](C)C(=O)N(C)[C@@H](CC(C)C)C(=O)O[C@H](Cc2ccccc2)C(=O)N(C)[C@@H](CC(C)C)C(=O)O[C@H](C)C(=O)N1C [Example 8-13, (3S,6R,9S,12R,15S,18R,21S,24R)-6-benzyl-18-(4-((2-(hydroxymethyl)-1H-imidazol-1-yl)methyl)benzyl)-3,9,15,21-tetraisobutyl-4,10,12,16,22,24-hexamethyl-1,7,13,19-tetraoxa-4,10,16,22-tetraazacyclotetracosan-2,5,8,11,14,17,20,23-octaone]
[1]
  minimal effective concentration: 0.001 to 0.01 µM
[2]
  minimal effective concentration: 1 to 10 µM
